Like-named read-outs stand apart in the source and are kept apart here.

Data on 18 compounds can be found in PMC5538589, “Discovery of Novel Allopurinol Derivatives with Anticancer Activity and Attenuated Xanthine Oxidase Inhibition” (Molecules, 2016).

The test system of series [1] is BEL-7402. More on the design: method as in PMID 23851116. The following applies: value from earlier study; cited from earlier work.
For the next series, the system named is MDA-MB-231 cells. The series can be described thus: Cell survival/growth assay (Coulter cell count), MDA-MB-231 cells.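 As to all read-outs here: cells grown in DMEM with 5% FBS, vehicle control was an equal volume of DMSO.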 The class given is cell-based. Particulars: 5 days, treated/vehicle cell number ratio; for viability at 1 µM / viability at 10 µM: Homo sapiens, 120 h; for viability at 1 µM: read-out: Survival Rate (%) 1 μM; for viability at 10 µM: read-out: Survival Rate (%) 10 μM.

Series [2] has as its system SMMC-7221. Details: method as in PMID 23851116. The following applies: value from earlier study; cited from earlier work.
Series [3] deals with MCF-10A cells. The experiment in a line: Cytotoxicity towards normal MCF-10A mammary epithelial cells (Cell Titer-Glo). The following applies: human, MCF-10A normal mammary epithelial cells. For orientation: ATP-based viability assays read luminescence as a measure of living cells.
Series [4] deals with BEL-7402. The experiment in a line: MTT cell viability assay, human hepatoma carcinoma BEL-7402 cells. The class given is cell-based. Particulars: 24 h treatment, concentration inhibiting cancer cell replication by 50%, tested up to 100 μM.
Series [5] concerns SMMC-7221. The experiment in a line: MTT cell viability assay, human hepatoma carcinoma SMMC-7221 cells. The class given is cell-based. Particulars: read-out: IC50 SMMC-7221. For orientation: Tetrazolium assays rely on reduction of a dye to a coloured formazan, in cell work by metabolically active cells.
For series [6], the system named is MCF-10A cells. The experiment in a line: in vitro. Particulars: human.
The test system of series [7] is normal cells versus tumor types. More on the design: method as in PMID 12213470, PMID 15217612. The following applies: normal cells more resistant to anti-cancer effects; cited from earlier work.
The target in a further series is xanthine oxidase (XOD) (Bos taurus, UniProt P80457). The following applies: test concentrations 5, 10, 15, 25 μM; allopurinol positive control.
Setting [8] is: SMMC-7221, MTT, 24 h treatment, concentration inhibiting cancer cell replication by 50%, tested up to 100 μM.

Sequence of xanthine oxidase (XOD) (P80457 2-1332 limits assumed): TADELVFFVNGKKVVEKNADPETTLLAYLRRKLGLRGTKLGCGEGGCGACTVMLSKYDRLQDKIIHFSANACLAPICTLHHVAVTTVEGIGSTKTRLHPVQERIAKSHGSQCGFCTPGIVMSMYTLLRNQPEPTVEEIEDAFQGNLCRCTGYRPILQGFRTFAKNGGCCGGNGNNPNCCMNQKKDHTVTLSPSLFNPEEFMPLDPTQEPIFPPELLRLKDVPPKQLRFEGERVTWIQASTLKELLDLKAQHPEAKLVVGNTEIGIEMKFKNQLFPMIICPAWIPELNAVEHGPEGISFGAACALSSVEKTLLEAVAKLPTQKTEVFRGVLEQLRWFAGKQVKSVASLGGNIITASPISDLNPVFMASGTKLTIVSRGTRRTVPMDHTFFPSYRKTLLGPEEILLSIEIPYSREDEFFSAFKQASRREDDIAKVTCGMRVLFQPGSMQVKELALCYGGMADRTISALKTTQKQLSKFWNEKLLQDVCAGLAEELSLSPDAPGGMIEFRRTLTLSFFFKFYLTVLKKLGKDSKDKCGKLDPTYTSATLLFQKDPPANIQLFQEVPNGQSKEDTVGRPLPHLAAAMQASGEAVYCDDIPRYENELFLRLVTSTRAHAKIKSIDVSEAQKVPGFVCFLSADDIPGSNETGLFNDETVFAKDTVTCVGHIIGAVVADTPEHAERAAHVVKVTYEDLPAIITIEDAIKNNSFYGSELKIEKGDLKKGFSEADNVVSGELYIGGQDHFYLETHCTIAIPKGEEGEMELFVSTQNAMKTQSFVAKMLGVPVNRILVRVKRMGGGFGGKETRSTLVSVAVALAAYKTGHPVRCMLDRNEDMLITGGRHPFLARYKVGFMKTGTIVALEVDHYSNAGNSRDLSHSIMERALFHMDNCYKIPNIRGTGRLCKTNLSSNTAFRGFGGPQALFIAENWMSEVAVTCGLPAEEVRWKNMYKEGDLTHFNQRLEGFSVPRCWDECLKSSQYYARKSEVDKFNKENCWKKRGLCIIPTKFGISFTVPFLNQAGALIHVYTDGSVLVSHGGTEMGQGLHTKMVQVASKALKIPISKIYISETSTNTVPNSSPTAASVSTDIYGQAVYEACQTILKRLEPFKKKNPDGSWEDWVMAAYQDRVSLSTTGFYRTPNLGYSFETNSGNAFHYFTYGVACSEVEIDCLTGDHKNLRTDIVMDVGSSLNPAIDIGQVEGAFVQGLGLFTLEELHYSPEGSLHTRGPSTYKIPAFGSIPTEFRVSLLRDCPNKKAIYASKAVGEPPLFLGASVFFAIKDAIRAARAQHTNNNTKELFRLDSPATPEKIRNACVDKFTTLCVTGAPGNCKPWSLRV

For the compound `CCOC(=O)Cn1ncc2c(Nc3ccc(NC(=O)CCl)cc3)ncnc21` [Compound 1], the IC50 is 18.7 µM with BEL-7402 [1] and 9.03 µM with SMMC-7221 [2]. Also, the viability at 1 µM in the series with MDA-MB-231 cells (MDA-MB-231, 1 μM) worked out at 40.2 ± 3.9%. For the same compound, the viability at 10 µM in the series with MDA-MB-231 cells (MDA-MB-231, 10 μM) turned out to be 1 ± 0.6%. Also, half-maximal inhibition with MCF-10A cells [3] (IC50 at 72 h) was put at 5.59 ± 0.27 µM.
For `CCn1ncc2c(Cl)ncnc21` [Compound 3, 4-Chloro-1-ethyl-1H-pyrazolo[3,4-d]pyrimidine], the melting point fell in the range of 76 to 77 °C. Moreover, the viability at 1 µM in the series with MDA-MB-231 cells (MDA-MB-231, 1 μM) was found to be 86.2 ± 8.6%. Also, the viability at 10 µM with MDA-MB-231 cells (MDA-MB-231, 10 μM) is 67 ± 4.8%. In the series with BEL-7402 [4], this compound came in with an IC50 of over 100 µM. For the same compound, in the series on SMMC-7221 [5] (setting [8]), the IC50 is over 100 µM.
In the case of `CCn1ncc2c(NN)ncnc21` [Compound 4, 1-Ethyl-4-hydrazinyl-1H-pyrazolo[3,4-d]pyrimidine], in the series on MDA-MB-231 cells (MDA-MB-231, 1 μM), the viability at 1 µM came to 66.1% and the “Survival Rate (%) 1 μM” value amounted to 66.1 ± 0.5%. Besides, in the series with MDA-MB-231 cells (MDA-MB-231, 10 μM), the viability at 10 µM is 27.8% and the “Survival Rate (%) 10 μM” value is listed as 27.8 ± 2.4%. The same compound displayed an IC50 with BEL-7402 [4] of 25.5 ± 0.4 µM. Moreover, the IC50 with SMMC-7221 [5] (SMMC-7221, 24 h) worked out at 35.2 ± 0.4 µM. The compound also registered an IC50 at 72 h in the series with MCF-10A cells [3] of 17.4 ± 0.69 µM.
Regarding `CCn1ncc2c(NNS(=O)(=O)c3ccc(C)cc3)ncnc21` [Compound 5a, N′-(1-Ethyl-1H-pyrazolo[3,4-d]pyrimidin-4-yl)-4-methylbenzenesulfonohydrazide], the melting point is 186 to 187 °C. In addition, the viability at 1 µM with MDA-MB-231 cells (MDA-MB-231, 1 μM) is 89.1 ± 1.5%. For the same compound, in the series on MDA-MB-231 cells (MDA-MB-231, 10 μM), the viability at 10 µM worked out at 72.8 ± 3.9%. Besides, the concentration for half-maximal inhibition (IC50) in the series with BEL-7402 [4] is over 100 µM. Further, the IC50 in the series with SMMC-7221 [5] (setting [8]) is over 100 µM.
`CCn1ncc2c(NNS(=O)(=O)c3ccc([N+](=O)[O-])cc3)ncnc21` [Compound 5b, N′-(1-Ethyl-1H-pyrazolo[3,4-d]pyrimidin-4-yl)-4-nitrobenzenesulfonohydrazide] showed a melting point of 194 to 195 °C. The viability at 1 µM with MDA-MB-231 cells (MDA-MB-231, 1 μM) was 92.9 ± 1.5%. Further, the viability at 10 µM in the series with MDA-MB-231 cells (MDA-MB-231, 10 μM) worked out at 68 ± 2.4%. In the series with BEL-7402 [4], this compound gave an IC50 of over 100 µM. In addition, the IC50 in the series on SMMC-7221 [5] (setting [8]) is over 100 µM.
The compound `CCn1ncc2c(NNS(=O)(=O)c3ccccc3)ncnc21` [Compound 5c, N′-(1-Ethyl-1H-pyrazolo[3,4-d]pyrimidin-4-yl)benzenesulfonohydrazide] showed a melting point of 194 to 195 °C. In addition, in the series with MDA-MB-231 cells (MDA-MB-231, 1 μM), the viability at 1 µM came out at 75.7 ± 11%. For the same compound, the viability at 10 µM in the series with MDA-MB-231 cells (MDA-MB-231, 10 μM) was found to be 74.7 ± 0.1%. The IC50 in the series with BEL-7402 [4] is over 100 µM. Besides, in the series on SMMC-7221 [5] (setting [8]), the IC50 was over 100 µM.
Compound `CCn1ncc2c(NNS(=O)(=O)c3ccc(Br)cc3)ncnc21` [Compound 5d, 4-Bromo-N′-(1-ethyl-1H-pyrazolo[3,4-d]pyrimidin-4-yl)benzenesulfonohydrazide] gave a melting point of 194 to 195 °C. Besides, the viability at 1 µM in the series with MDA-MB-231 cells (MDA-MB-231, 1 μM) was 80.5 ± 2%. Besides, in the series with MDA-MB-231 cells (MDA-MB-231, 10 μM), the viability at 10 µM amounted to 70.9 ± 1%. In the series on BEL-7402 [4], this compound came in with an IC50 of over 100 µM. The IC50 in the series with SMMC-7221 [5] (setting [8]) was over 100 µM.
Consider `CCn1ncc2c(NNC(C)=O)ncnc21` [Compound 5e, N′-(1-Ethyl-1H-pyrazolo[3,4-d]pyrimidin-4-yl)acetohydrazide], for which the viability at 1 µM in the series with MDA-MB-231 cells (MDA-MB-231, 1 μM) was found to be 94.8 ± 0.5%. The viability at 10 µM in the series with MDA-MB-231 cells (MDA-MB-231, 10 μM) stood at 61.3 ± 1%. Also, the IC50 with BEL-7402 [4] and with SMMC-7221 [5] (setting [8]) was over 100 µM each time. For the same compound, in the series on MCF-10A cells [3], 20.2 ± 0.81 µM corresponded to half-maximal inhibition (IC50 at 72 h).
`CCn1ncc2c(N(NC(=O)c3ccccc3)C(=O)c3ccccc3)ncnc21` [Compound 5f, N′-Benzoyl-N′-(1-ethyl-1H-pyrazolo[3,4-d]pyrimidin-4-yl)benzohydrazide] displayed a melting point of 144 to 146 °C. Besides, the viability at 1 µM in the series on MDA-MB-231 cells (MDA-MB-231, 1 μM) was determined as 102 ± 11%. The viability at 10 µM in the series with MDA-MB-231 cells (MDA-MB-231, 10 μM) turned out to be 88.1 ± 1%. In the series on BEL-7402 [4], this compound showed an IC50 of over 100 µM. In addition, the IC50 in the series on SMMC-7221 [5] (setting [8]) was over 100 µM.
The compound `CCn1ncc2c(NNC(=O)CCl)ncnc21` [Compound 5g, 2-Chloro-N′-(1-ethyl-1H-pyrazolo[3,4-d]pyrimidin-4-yl)acetohydrazide] had a melting point of 202 to 204 °C. Further, in the series on MDA-MB-231 cells (MDA-MB-231, 1 μM), the viability at 1 µM stood at 105 ± 4.8%. For the same compound, the viability at 10 µM in the series on MDA-MB-231 cells (MDA-MB-231, 10 μM) was 105 ± 2.9%. Moreover, the IC50 in the series with BEL-7402 [4] was over 100 µM. In the series on SMMC-7221 [5] (setting [8]), the IC50 was over 100 µM. The same compound showed a concentration for half-maximal inhibition (IC50) at 72 h with MCF-10A cells [3] of 23.3 ± 0.71 µM.
For `Clc1ncnc2c1cnn2Cc1ccccc1` [Compound 6, 1-Benzyl-4-chloro-1H-pyrazolo[3,4-d]pyrimidine], the melting point fell in the range of 62 to 63 °C. For the same compound, the viability at 1 µM in the series on MDA-MB-231 cells (MDA-MB-231, 1 μM) amounted to 77.6 ± 9.1%. In addition, in the series on MDA-MB-231 cells (MDA-MB-231, 10 μM), the viability at 10 µM is 75.7 ± 1.5%. In addition, in the series on BEL-7402 [4], the IC50 was over 100 µM. For the same compound, in the series on SMMC-7221 [5] (setting [8]), the IC50 is over 100 µM.
With `NCCNc1ncnc2c1cnn2Cc1ccccc1` [Compound 7, N1-(1-Benzyl-1H/-pyrazolo[3,4-d]pyrimidin-4-yl)ethane-1,2-diamine], the viability at 1 µM in the series with MDA-MB-231 cells (MDA-MB-231, 1 μM) is 81.4 ± 7.2%. In the series with MDA-MB-231 cells (MDA-MB-231, 10 μM), the viability at 10 µM came out at 57.5 ± 1%. Moreover, the IC50 in the series with BEL-7402 [4] and with SMMC-7221 [5] (setting [8]) was over 100 µM in each case.
As for `O=S(=O)(NCCNc1ncnc2c1cnn2Cc1ccccc1)c1ccccc1` [Compound 8a, N-(2-((1-Benzyl-1H-pyrazolo[3,4-d]pyrimidin-4-yl)amino)ethyl)benzenesulfonamide], the viability at 10 µM in the series with MDA-MB-231 cells (MDA-MB-231, 10 μM) stood at 58.4 ± 2.4%. For the same compound, the results for the IC50 in the series on BEL-7402 [4] and with SMMC-7221 [5] (setting [8]) were 66.61 ± 0.62 µM and over 100 µM, respectively.
In the case of `O=[N+]([O-])c1ccc(S(=O)(=O)NCCNc2ncnc3c2cnn3Cc2ccccc2)cc1` [Compound 8b, N-(2-((1-Benzyl-1H-pyrazolo[3,4-d]pyrimidin-4-yl)amino)ethyl)-4-nitrobenzenesulfonamide], the viability at 1 µM in the series with MDA-MB-231 cells (MDA-MB-231, 1 μM) was 75.7 ± 2.4%. Besides, the viability at 10 µM in the series on MDA-MB-231 cells (MDA-MB-231, 10 μM) amounted to 71.8 ± 8.5%. The IC50 in the series on BEL-7402 [4] was over 100 µM; in the series on SMMC-7221 [5] (setting [8]), 81.46 ± 0.78 µM.
Take `O=S(=O)(NCCNc1ncnc2c1cnn2Cc1ccccc1)c1ccc(Br)cc1` [Compound 8c, N-(2-((1-benzyl-1H-pyrazolo[3,4-d]pyrimidin-4-yl)amino)ethyl)-4-bromobenzenesulfonamide]: in the series on MDA-MB-231 cells (MDA-MB-231, 1 μM), the viability at 1 µM stood at 105 ± 8.6%. Further, the viability at 10 µM in the series with MDA-MB-231 cells (MDA-MB-231, 10 μM) was 78.5 ± 3.9%. Moreover, the IC50 in the series with BEL-7402 [4] and in the series on SMMC-7221 [5] (setting [8]) was over 100 µM each time.
For the compound `C=CCNC1=C2C[C@@H](C)C[C@H](OC)[C@H](O)[C@@H](C)/C=C(\C)[C@H](OC(N)=O)[C@@H](OC)/C=C\C=C(/C)C(=O)NC(=CC1=O)C2=O` [Compound 17-AAG, 17-N-allylamino-17-demethoxy geldanamycin, reference compound], the viability at 1 µM with MDA-MB-231 cells (MDA-MB-231, 1 μM) was found to be 6.7 ± 0.5%. In addition, the viability at 10 µM with MDA-MB-231 cells (MDA-MB-231, 10 μM) came to 4.8 ± 0.5%. The compound also showed a concentration for half-maximal inhibition (IC50) at 72 h in the series on MCF-10A cells [6] of 90 ± 10 nM. Moreover, the IC50 with BEL-7402 [4] came out at 12.4 ± 0.1 µM; in the series with SMMC-7221 [5] (setting [8]), 9.85 ± 0.08 µM.
Turning to `C#CCCCn1c(Cc2cc(OC)c(OC)c(OC)c2Cl)nc2c(N)nc(F)nc21` [PU24FCl], the “Resistance of normal cells relative to tumor cells” value in series [7] is 10- to 50 fold.
Consider `Oc1ncnc2[nH]ncc12` [allopurinol, 4-hydroxyl-1H-pyrazolo[3,4-d]pyrimidine], for which the viability at 1 µM in the series with MDA-MB-231 cells (MDA-MB-231, 1 μM) was 84.3 ± 7.7%. The viability at 10 µM in the series with MDA-MB-231 cells (MDA-MB-231, 10 μM) worked out at 51.7 ± 6.7%. The “XOD inhibitory activity (in words)” value on xanthine oxidase (XOD) was “strong inhibitor of XOD”.

For orientation: IC50 means the concentration that inhibits the measured activity by half. A word on the melting point: it is the temperature, or range, at which the solid turns liquid.
